Reference: patent US20080132509A1, “Substituted Biaryl Analogues” (Neurogen Corporation, priority 2004, published 2008)

Molecular target: T1, human capsaicin receptor (Homo sapiens, UniProt Q8NER1)
T1 construct: expressed in transfected cells
Assay: Calcium mobilization assay, determination of agonist activity
Format: cell-based
Conditions: cells expressing human capsaicin receptor, no capsaicin added, FLUO-3 fluorescence
Experimental: (§1) A cDNA encoding full length human capsaicin receptor (SEQ ID NO: 1, 2 or 3 of U.S. Pat. No. 6,482,611) was subcloned in the plasmid pBK-CMV (Stratagene, La Jolla, Calif.) for recombinant expression in mammalian cells.
(§2) Human embryonic kidney (HEK293) cells were transfected with the pBK-CMV expression construct encoding the full length human capsaicin receptor using standard methods. The transfected cells were selected for two weeks in media containing G418 (400 μg/ml) to obtain a pool of stably transfected cells. Independent clones were isolated from this pool by limiting dilution to obtain clonal stable cell lines for use in subsequent experiments.
Cells transfected with expression plasmids (as described in Example 4) and thereby expressing human capsaicin receptor are seeded and grown to 70-90% confluency in FALCON black-walled, clear-bottomed 96-well plates (#3904, BECTON-DICKINSON, Franklin Lakes, N.J.). The culture medium is emptied from the 96 well plates and FLUO-3 AM calcium sensitive dye (Molecular Probes, Eugene, Oreg.) is added to each well (dye solution: 1 mg FLUO-3 AM, 440 μL DMSO and 440 μ20% pluronic acid in DMSO, diluted 1:250 in Krebs-Ringer HEPES (KRH) buffer (25 mM HEPES, 5 mM KCl, 0.96 mM NaH2PO4, 1 mM MgSO4, 2 mM CaCl2, 5 mM glucose, 1 mM probenecid, pH 7.4), 50 μl diluted solution per well). Plates are covered with aluminum foil and incubated at 37° C. for 1-2 hours in an environment containing 5% CO2. […]
The ability of a test compound to act as an agonist of the capsaicin receptor is determined by measuring the fluorescence response of cells expressing capsaicin receptors elicited by the compound as function of compound concentration. […] The extent of efficacy of each test compound is also determined by calculating the response elicited by a concentration of test compound (typically 1 μM) relative to the response elicited by 100 nM capsaicin. This value, called Percent of Signal (POS), is calculated by the following equation: […]

T1 sequence (Q8NER1 whole entry): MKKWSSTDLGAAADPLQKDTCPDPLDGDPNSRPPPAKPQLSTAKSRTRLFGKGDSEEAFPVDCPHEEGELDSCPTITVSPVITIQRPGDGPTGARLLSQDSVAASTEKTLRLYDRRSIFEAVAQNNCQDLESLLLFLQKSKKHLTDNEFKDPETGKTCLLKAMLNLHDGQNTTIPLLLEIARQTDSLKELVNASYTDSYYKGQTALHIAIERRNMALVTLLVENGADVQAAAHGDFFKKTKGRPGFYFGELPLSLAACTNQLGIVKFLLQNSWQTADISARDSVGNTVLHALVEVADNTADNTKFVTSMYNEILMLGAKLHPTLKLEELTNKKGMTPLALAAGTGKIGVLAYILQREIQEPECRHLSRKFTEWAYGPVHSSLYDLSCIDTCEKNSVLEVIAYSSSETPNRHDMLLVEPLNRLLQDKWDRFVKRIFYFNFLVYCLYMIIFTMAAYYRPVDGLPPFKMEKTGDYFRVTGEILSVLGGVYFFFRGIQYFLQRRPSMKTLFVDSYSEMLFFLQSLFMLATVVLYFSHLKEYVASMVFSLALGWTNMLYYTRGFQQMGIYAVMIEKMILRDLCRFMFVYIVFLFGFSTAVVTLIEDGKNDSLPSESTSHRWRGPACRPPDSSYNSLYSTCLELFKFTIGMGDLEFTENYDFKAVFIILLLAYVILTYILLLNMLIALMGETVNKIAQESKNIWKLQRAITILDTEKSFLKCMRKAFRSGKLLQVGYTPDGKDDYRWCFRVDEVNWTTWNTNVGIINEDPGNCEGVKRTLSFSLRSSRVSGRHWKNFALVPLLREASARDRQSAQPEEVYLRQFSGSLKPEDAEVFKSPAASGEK

EC50 [µM] | SMILES
< 1 | CC1CCCN1c1nc(-c2ccc(F)cc2)cc(-c2ccc(N3CCC(O)CC3)nc2)n1 (stereo not shown) [Compound 1, 1-{5-[6-(4-fluorophenyl)-2-(2-methylpyrrolidin-1-yl)pyrimidin-4-yl]pyridin-2-yl}piperidin-4-ol]
< 1 | CC1CCCN1c1nc(-c2ccc(F)cc2)cc(-c2ccc(N3CCC(C(N)=O)CC3)nc2)n1 (stereo not shown) [Compound 4, 1-{5-[6-(4-fluorophenyl)-2-(2-methylpyrrolidin-1-yl)pyrimidin-4-yl]pyridin-2-yl}piperidine-4-carboxamide]
< 1 | CC1CCCN1c1nc(-c2ccc(F)cc2)cc(-c2ccc(N3CCC(CO)CC3)nc2)n1 (stereo not shown) [Compound 7, (1-{5-[6-(4-fluorophenyl)-2-(2-methylpyrrolidin-1-yl)pyrimidin-4-yl]pyridin-2-yl}piperidin-4-yl)methanol]

Molecular target: T1, human capsaicin receptor
Assay: Calcium mobilization assay, determination of antagonist activity
Format: cell-based
Conditions: cells expressing human capsaicin receptor, capsaicin at EC50, FLUO-3 fluorescence; read-out: IC50 (antag.)
Experimental: as §1, §2
Cells transfected with expression plasmids (as described in Example 4) and thereby expressing human capsaicin receptor are seeded and grown to 70-90% confluency in FALCON black-walled, clear-bottomed 96-well plates (#3904, BECTON-DICKINSON, Franklin Lakes, N.J.). The culture medium is emptied from the 96 well plates and FLUO-3 AM calcium sensitive dye (Molecular Probes, Eugene, Oreg.) is added to each well (dye solution: 1 mg FLUO-3 AM, 440 μL DMSO and 440 μ20% pluronic acid in DMSO, diluted 1:250 in Krebs-Ringer HEPES (KRH) buffer (25 mM HEPES, 5 mM KCl, 0.96 mM NaH2PO4, 1 mM MgSO4, 2 mM CaCl2, 5 mM glucose, 1 mM probenecid, pH 7.4), 50 μl diluted solution per well). Plates are covered with aluminum foil and incubated at 37° C. for 1-2 hours in an environment containing 5% CO2. After the incubation, the dye is emptied from the plates, and the cells are washed once with KRH buffer, and resuspended in KRH buffer.
To measure the ability of a test compound to agonize or antagonize a calcium mobilization response in cells expressing capsaicin receptors to capsaicin or other vanilloid agonist, the EC50 of the agonist capsaicin is first determined. An additional 20 μl of KRH buffer and 1 μl DMSO is added to each well of cells, prepared as described above. 100 μl capsaicin in KRH buffer is automatically transferred by the FLIPR instrument to each well. Capsaicin-induced calcium mobilization is monitored using either FLUOROSKAN ASCENT (Labsystems; Franklin, Mass.) or FLIPR (fluorometric imaging plate reader system; Molecular Devices, Sunnyvale, Calif.) instruments. Data obtained between 30 and 60 seconds after agonist application are used to generate an 8-point concentration response curve, with final capsaicin concentrations of 1 nM to 3 μM. KALEIDAGRAPH software (Synergy Software, Reading, Pa.) is used to fit the data to the equation: […]
to determine the 50% excitatory concentration (EC50) for the response. In this equation, y is the maximum fluorescence signal, x is the concentration of the agonist or antagonist (in this case, capsaicin), a is the Emax, b corresponds to the EC50 value and c is the Hill coefficient.
Test compounds are dissolved in DMSO, diluted in 20 μl KRH buffer so that the final concentration of test compounds in the assay well is between 1 μM and 5 μM, and added to cells prepared as described above. The 96 well plates containing prepared cells and test compounds are incubated in the dark, at room temperature for 0.5 to 6 hours. It is important that the incubation not continue beyond 6 hours. Just prior to determining the fluorescence response, 100 μl capsaicin in KRH buffer at twice the EC50 concentration determined as described above is automatically added by the FLIPR instrument to each well of the 96 well plate for a final sample volume of 200 μl and a final capsaicin concentration equal to the EC50. The final concentration of test compounds in the assay wells is between 1 μM and 5 μM. […] The concentration of antagonist required to provide a 50% decrease, relative to the response observed in the presence of capsaicin and without antagonist, is the IC50 for the antagonist, and is preferably below 1 micromolar, 100 nanomolar, 10 nanomolar or 1 nanomolar.

IC50 [µM] | SMILES
< 1 | CC1CCCN1c1nc(-c2ccc(F)cc2)cc(-c2ccc(N3CCC(C(=O)O)CC3)nc2)n1 (stereo not shown) [Compound 3, 1-{5-[6-(4-fluorophenyl)-2-(2-methylpyrrolidin-1-yl)pyrimidin-4-yl]pyridin-2-yl}piperidine-4-carboxylicacid]
< 1 | Fc1ccc(-c2cc(-c3ccc(-c4ncccc4C(F)(F)F)nc3)nc(N3CCOCC3)n2)cc1Cl [Compound 5, 5′-[6-(3-chloro-4-fluorophenyl)-2-morpholin-4-ylpyrimidin-4-yl]-3-(trifluoromethyl)-2,2′-bipyridine]

More lines, now with the values behind:

SMILES | IC50 [µM]
CC1CCCN1c1nc(-c2ccc(F)cc2)cc(-c2ccc(N3CCC(O)CC3)nc2)n1 (stereo not shown) [Compound 1, 1-{5-[6-(4-fluorophenyl)-2-(2-methylpyrrolidin-1-yl)pyrimidin-4-yl]pyridin-2-yl}piperidin-4-ol] | < 1
Cc1cccnc1-c1ccc(-c2cc(-c3ccc(F)c(Cl)c3)nc(N3CCOCC3)n2)cn1 [Compound 6, 5′-[6-(3-chloro-4-fluorophenyl)-2-morpholin-4-ylpyrimidin-4-yl]-3-methyl-2,2′-bipyridine] | < 1
Nc1nc(-c2ccc(-c3ncccc3C(F)(F)F)cc2)cc(-c2ccc(F)c(Cl)c2)n1 [Compound 8, 4-(3-chloro-4-fluorophenyl)-6-{4-[3(trifluoromethyl)pyridin-2-yl]phenyl}pyrimidin-2-amine] | < 1
Fc1ccc(-c2cc(-c3ccc(-c4ncccc4C(F)(F)F)cc3)nc(N3CCOCC3)n2)cc1Cl [Compound 9, 4-(4-(3-chloro-4-fluorophenyl)-6-{4-[3-(trifluoromethyl)pyridin-2-yl]phenyl}pyrimidin-2-yl)morpholine] | < 1

Molecular target: VR (Homo sapiens, UniProt Q8NER1)
Sequence (Q8NER1 whole entry): as above
Assay: not given
Conditions: typically; no more than moderate affinity; cited from earlier work

SMILES | Ki [µM]
Cl.Cl.Cl.Cl.Cl.Cl.N.N.N.N.N.N.N.N.N.N.N.N.N.N.[O-2].[O-2].[Ru+3].[Ru+3].[Ru+4] [ruthenium red] | ≥ 140
